Assay results: paper PMC6114901, “An automated screening method for detecting compounds with goitrogenic activity using transgenic zebrafish embryos” (PLoS ONE, 2018)
Like-named read-outs stand apart in the source and are kept apart here.

Key:
zebrafish embryos = experiment: in vivo; conditions: for LC10: unit not given, in µM; for Slope: mortality concentration-response curve
Experimental: Fish embryo acute toxicity tests were performed similar as described previously, using 10 or 25 embryos per concentration and replicate exposed in crystallization dishes from 48 to 120 hpf. No exchange of exposure media was performed. Lethality was identified by coagulation, missing heartbeat, a non–detached tail and/or missing of somites. Raw data for mortality and phenotypic assessment are provided as S1 Table. Concentration-response curves for mortality are shown in S2 Fig.

[1] = tested on: thyroid hormone levels (T4); conditions: ref Thienpont et al. [13], cited from earlier work
[2] = 72 hpf, 15000 µmol/L, replicate 2, 10 embryos
[3] = 72 hpf, 30000 µmol/L, replicate 2, 10 embryos
[4] = 72 hpf, 50000 µmol/L, replicate 1, 10 embryos
[5] = 72 hpf, 100000 µmol/L, replicate 1, 10 embryos
[6] = 96 hpf, 20000 µmol/L, replicate 2, 10 embryos
[7] = 96 hpf, 25000 µmol/L, replicate 2, 10 embryos
[8] = 96 hpf, 30000 µmol/L, replicate 2, 10 embryos
[9] = 96 hpf, 50000 µmol/L, replicate 1, 10 embryos
[10] = 96 hpf, 50000 µmol/L, replicate 2, 10 embryos
[11] = 96 hpf, 100000 µmol/L, replicate 1, 10 embryos
[12] = 120 hpf, 10000 µmol/L, replicate 1, 10 embryos
[13] = 120 hpf, 15000 µmol/L, replicate 2, 10 embryos
[14] = 120 hpf, 20000 µmol/L, replicate 2, 10 embryos
[15] = 120 hpf, 25000 µmol/L, replicate 1, 10 embryos
[16] = 120 hpf, 25000 µmol/L, replicate 2, 10 embryos
[17] = 120 hpf, 30000 µmol/L, replicate 2, 10 embryos
[18] = 120 hpf, 40000 µmol/L, replicate 2, 10 embryos
[19] = 120 hpf, 50000 µmol/L, replicate 1, 10 embryos
[20] = 120 hpf, 50000 µmol/L, replicate 2, 10 embryos
[21] = 120 hpf, 100000 µmol/L, replicate 1, 10 embryos

In the case of `[K+].[O-][Cl+3]([O-])([O-])[O-]` [Potassium perchlorate, potassium perchlorate], the “No Surviving” value (zebrafish embryos; 72 hpf, 1000 µmol/L, replicate 1, 10 embryos) is reported as 10, the “No Surviving” value (zebrafish embryos; 72 hpf, 5000 µmol/L, replicate 1, 10 embryos) is reported as 10 and the “No Surviving” value (zebrafish embryos; 72 hpf, 10000 µmol/L, replicate 1, 10 embryos) is reported as 10. The “No Surviving” value (zebrafish embryos; [2]) was 10, the Sublethal effects mtail (zebrafish embryos; [2]) was 1 and the “No Surviving” value (zebrafish embryos; 72 hpf, 20000 µmol/L, replicate 2, 10 embryos) was 10. The “No Surviving” value (zebrafish embryos; 72 hpf, 25000 µmol/L, replicate 1, 10 embryos) was 10, the “No Surviving” value (zebrafish embryos; 72 hpf, 25000 µmol/L, replicate 2, 10 embryos) was 10 and the Lethal effects k/f (zebrafish embryos; [3]) was 1. The “No Surviving” value (zebrafish embryos; [3]) was 9, the “No Surviving” value (zebrafish embryos; 72 hpf, 40000 µmol/L, replicate 2, 10 embryos) was 10 and the Lethal effects k/f (zebrafish embryos; [4]) was 3. The “No Surviving” value (zebrafish embryos; [4]) was 7, the Sublethal effects tip (zebrafish embryos; [4]) was 1 and the “No Surviving” value (zebrafish embryos; 72 hpf, 50000 µmol/L, replicate 2, 10 embryos) was 10. The Lethal effects nohb (zebrafish embryos; [5]) was 1, the “No Surviving” value (zebrafish embryos; [5]) was 9 and the “Sublethal effects Total Sublethal” value (zebrafish embryos; [5]) was 8. The Sublethal effects beh (zebrafish embryos; [5]) was 5, the Sublethal effects nomov (zebrafish embryos; [5]) was 3 and the “No Surviving” value (zebrafish embryos; 96 hpf, 1000 µmol/L, replicate 1, 10 embryos) was 10. The “No Surviving” value (zebrafish embryos; 96 hpf, 5000 µmol/L, replicate 1, 10 embryos) was 10, the “No Surviving” value (zebrafish embryos; 96 hpf, 10000 µmol/L, replicate 1, 10 embryos) was 10 and the “No Surviving” value (zebrafish embryos; 96 hpf, 15000 µmol/L, replicate 2, 10 embryos) was 10. For the same molecule, the Lethal effects nohb (zebrafish embryos; [6]) was 3, the “No Surviving” value (zebrafish embryos; [6]) was 7 and the “Sublethal effects Total Sublethal” value (zebrafish embryos; [6]) was 1. For the same molecule, the Sublethal effects mtail (zebrafish embryos; [6]) was 1, the “No Surviving” value (zebrafish embryos; 96 hpf, 25000 µmol/L, replicate 1, 10 embryos) was 10 and the Lethal effects nohb (zebrafish embryos; [7]) was 6. For the same molecule, the “No Surviving” value (zebrafish embryos; [7]) was 4, the “Sublethal effects Total Sublethal” value (zebrafish embryos; [7]) was 4 and the Sublethal effects nobc (zebrafish embryos; [7]) was 4. The Lethal effects k/f (zebrafish embryos; [8]) was 1, the Lethal effects nohb (zebrafish embryos; [8]) was 9 and the “No Surviving” value (zebrafish embryos; 96 hpf, 40000 µmol/L, replicate 2, 10 embryos) was 10. The Lethal effects k/f (zebrafish embryos; [9]) was 1, the Lethal effects nohb (zebrafish embryos; [9]) was 4 and the “No Surviving” value (zebrafish embryos; [9]) was 5. The “Sublethal effects Total Sublethal” value (zebrafish embryos; [9]) was 3, the Sublethal effects nobc (zebrafish embryos; [9]) was 2 and the Sublethal effects nomov (zebrafish embryos; [9]) was 1. The Sublethal effects tip (zebrafish embryos; [9]) was 1, the Lethal effects k/f (zebrafish embryos; [10]) was 1 and the “No Surviving” value (zebrafish embryos; [10]) was 9. For the same molecule, the Lethal effects nohb (zebrafish embryos; [11]) was 10, the “No Surviving” value (zebrafish embryos; [11]) was 0 and the Sublethal effects nobc (zebrafish embryos; [11]) was 10. For the same molecule, the “No Surviving” value (zebrafish embryos; 120 hpf, 1000 µmol/L, replicate 1, 10 embryos) was 10, the “No Surviving” value (zebrafish embryos; 120 hpf, 5000 µmol/L, replicate 1, 10 embryos) was 10 and the Lethal effects nohb (zebrafish embryos; [12]) was 1. The “No Surviving” value (zebrafish embryos; [12]) was 9, the “Sublethal effects EdY / EdP” value (zebrafish embryos; [12]) was 1 and the “Sublethal effects Total Sublethal” value (zebrafish embryos; [12]) was 1. The Lethal effects k/f (zebrafish embryos; [13]) was 1, the Lethal effects nohb (zebrafish embryos; [13]) was 5 and the “No Surviving” value (zebrafish embryos; [13]) was 4. For the same molecule, the “Sublethal effects Total Sublethal” value (zebrafish embryos; [13]) was 5, the Sublethal effects mtail (zebrafish embryos; [13]) was 5 and the Lethal effects k/f (zebrafish embryos; [14]) was 4. For the same molecule, the “No Surviving” value (zebrafish embryos; [14]) was 6, the “Sublethal effects Total Sublethal” value (zebrafish embryos; [14]) was 6 and the Sublethal effects nobc (zebrafish embryos; [14]) was 6. For the same molecule, the Lethal effects nohb (zebrafish embryos; [15]) was 9, the “No Surviving” value (zebrafish embryos; [15]) was 1 and the “Sublethal effects Total Sublethal” value (zebrafish embryos; [15]) was 1. The Sublethal effects nobc (zebrafish embryos; [15]) was 1, the Lethal effects k/f (zebrafish embryos; [16]) was 4 and the Lethal effects nohb (zebrafish embryos; [16]) was 2. For the same molecule, the “No Surviving” value (zebrafish embryos; [16]) was 4, the “Sublethal effects Total Sublethal” value (zebrafish embryos; [16]) was 4 and the Sublethal effects nobc (zebrafish embryos; [16]) was 4. For the same molecule, the Lethal effects k/f (zebrafish embryos; [17]) was 1, the “No Surviving” value (zebrafish embryos; [17]) was 9 and the “Sublethal effects Total Sublethal” value (zebrafish embryos; [17]) was 9. For the same molecule, the Sublethal effects nobc (zebrafish embryos; [17]) was 9, the Lethal effects k/f (zebrafish embryos; [18]) was 1 and the Lethal effects nohb (zebrafish embryos; [18]) was 2. The “No Surviving” value (zebrafish embryos; [18]) was 7, the “Sublethal effects Total Sublethal” value (zebrafish embryos; [18]) was 7 and the Sublethal effects nobc (zebrafish embryos; [18]) was 7. The Lethal effects nohb (zebrafish embryos; [19]) was 4, the “No Surviving” value (zebrafish embryos; [19]) was 6 and the “Sublethal effects Total Sublethal” value (zebrafish embryos; [19]) was 6. For the same molecule, the Sublethal effects nobc (zebrafish embryos; [19]) was 6, the Lethal effects k/f (zebrafish embryos; [20]) was 4 and the Lethal effects nohb (zebrafish embryos; [20]) was 1. The “No Surviving” value (zebrafish embryos; [20]) was 5, the “Sublethal effects Total Sublethal” value (zebrafish embryos; [20]) was 5 and the Sublethal effects nobc (zebrafish embryos; [20]) was 5. For the same molecule, the Lethal effects nohb (zebrafish embryos; [21]) was 10, the “No Surviving” value (zebrafish embryos; [21]) was 0 and the LC50 (zebrafish embryos; mortality after 48 h of exposure, S2 Fig, unit inferred) was 50.3 mM. It also gave an LC10 (zebrafish embryos; mortality after 48 h of exposure, S2 Fig) of 10862, an LC50 (zebrafish embryos; mortality after 72 h of exposure, S2 Fig, unit inferred) of 33.1 mM and an LC10 (zebrafish embryos; mortality after 72 h of exposure, S2 Fig) of 3232. For the same molecule, the Slope (zebrafish embryos; 48 h of exposure) was 1.43, the Slope (zebrafish embryos; 72 h of exposure) was 0.944 and the LC50 (zebrafish embryos; read-out: LC50 (48–120 hpf), mortality, embryos exposed 48–120 hpf) was 33.1 mM. For the same molecule, the EC50 ([1]; read-out: EC50 T4 reduction, reduction of thyroid hormone levels (immunostaining)) was 0.0025 mM and the “TDI (T4)” value ([1]; thyroid disruption index based on T4 reduction) was 6030.
